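Protocol summary: plate cells (96-well), add compound at 5 concentrations, incubate 48 h, interpolate endpoints linearly. The concentration for full growth arrest is given as TGI.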
Assays:
Assay in all cases: NCI-60 cell line screen, 48 h
786-0 renal = test system: 786-0 renal
A498 renal = test system: A498 renal
A549 NSCLC = test system: A549 NSCLC
ACHN renal = test system: ACHN renal
BT-549 breast = test system: BT-549 breast
CAKI-1 renal = test system: CAKI-1 renal
CCRF-CEM leukemia = test system: CCRF-CEM leukemia
COLO 205 colon = test system: COLO 205 colon
DU-145 prostate = test system: DU-145 prostate
EKVX NSCLC = test system: EKVX NSCLC
HCC-2998 colon = test system: HCC-2998 colon
HCT-116 colon = test system: HCT-116 colon
HCT-15 colon = test system: HCT-15 colon
HL-60(TB) leukemia = test system: HL-60(TB) leukemia
HOP-62 NSCLC = test system: HOP-62 NSCLC
HOP-92 NSCLC = test system: HOP-92 NSCLC
HS 578T breast = test system: HS 578T breast
HT29 colon = test system: HT29 colon
IGROV1 ovarian = test system: IGROV1 ovarian
K-562 leukemia = test system: K-562 leukemia
KM12 colon = test system: KM12 colon
LOX IMVI melanoma = test system: LOX IMVI melanoma
M14 melanoma = test system: M14 melanoma
MALME-3M melanoma = test system: MALME-3M melanoma
MCF7 breast = test system: MCF7 breast
MDA-MB-231 breast = test system: MDA-MB-231 breast
MDA-MB-435 = test system: MDA-MB-435
MDA-N = test system: MDA-N
MOLT-4 leukemia = test system: MOLT-4 leukemia
NCI-H226 lung = test system: NCI-H226 lung
NCI-H23 lung = test system: NCI-H23 lung
NCI-H460 lung = test system: NCI-H460 lung
NCI-H522 lung = test system: NCI-H522 lung
NCI/ADR-RES ovarian = test system: NCI/ADR-RES ovarian
OVCAR-3 ovarian = test system: OVCAR-3 ovarian
OVCAR-4 ovarian = test system: OVCAR-4 ovarian
OVCAR-5 ovarian = test system: OVCAR-5 ovarian
OVCAR-8 ovarian = test system: OVCAR-8 ovarian
PC-3 prostate = test system: PC-3 prostate
RPMI-8226 leukemia = test system: RPMI-8226 leukemia
RXF 393 renal = test system: RXF 393 renal
SF-268 CNS = test system: SF-268 CNS
SF-295 CNS = test system: SF-295 CNS
SF-539 CNS = test system: SF-539 CNS
SK-MEL-2 melanoma = test system: SK-MEL-2 melanoma
SK-MEL-28 melanoma = test system: SK-MEL-28 melanoma
SK-MEL-5 melanoma = test system: SK-MEL-5 melanoma
SK-OV-3 ovarian = test system: SK-OV-3 ovarian
SN12C renal = test system: SN12C renal
SNB-19 CNS = test system: SNB-19 CNS
SNB-75 CNS = test system: SNB-75 CNS
SR leukemia = test system: SR leukemia
SW-620 colon = test system: SW-620 colon
T-47D breast = test system: T-47D breast
TK-10 renal = test system: TK-10 renal
U251 CNS = test system: U251 CNS
UACC-257 melanoma = test system: UACC-257 melanoma
UACC-62 melanoma = test system: UACC-62 melanoma
UO-31 renal = test system: UO-31 renal

SMILES: CC1CC[C@@]2(OC1)O[C@H]1C[C@H]3[C@@H]4CC[C@H]5C[C@@H](OC6OC(CO)C(OC7OC(CO)C(OC8OC(CO)C(O)C(OC9OC(C)C(OC%10OC(C)C(O)C(O)C%10O)C(O)C9O)C8OC8OCC(O)C(O)C8O)C(O)C7O)C(O)C6O)CC[C@]5(C)[C@H]4CC(=O)[C@]3(C)[C@H]1[C@@H]2C (some centres undefined)
- TGI (786-0 renal): 54.9 µM
- TGI (A498 renal): 32.1 µM
- TGI (A549 NSCLC): 51.3 µM
- TGI (ACHN renal): 30.9 µM
- TGI (BT-549 breast): 37 µM
- TGI (CAKI-1 renal): 29.3 µM
- TGI (CCRF-CEM leukemia): 29.2 µM
- TGI (COLO 205 colon): 30.1 µM
- TGI (DU-145 prostate): 40.4 µM
- TGI (EKVX NSCLC): 40.4 µM
- TGI (HCC-2998 colon): 32.8 µM
- TGI (HCT-116 colon): 52.9 µM
- TGI (HCT-15 colon): 35.2 µM
- TGI (HL-60(TB) leukemia): 27.6 µM
- TGI (HOP-62 NSCLC): 45.5 µM
- TGI (HOP-92 NSCLC): 38.2 µM
- TGI (HS 578T breast): 50.7 µM
- TGI (HT29 colon): > 100 µM
- TGI (IGROV1 ovarian): 37.4 µM
- TGI (K-562 leukemia): 32.7 µM
- TGI (KM12 colon): 36.1 µM
- TGI (LOX IMVI melanoma): 53.5 µM
- TGI (M14 melanoma): 41.7 µM
- TGI (MALME-3M melanoma): 41.3 µM
- TGI (MCF7 breast): 31.8 µM
- TGI (MDA-MB-231 breast): 30.1 µM
- TGI (MDA-MB-435): 35.7 µM
- TGI (MDA-N): 39.4 µM
- TGI (MOLT-4 leukemia): 34.6 µM
- TGI (NCI-H226 lung): 35.5 µM
- TGI (NCI-H23 lung): 35.8 µM
- TGI (NCI-H460 lung): 32.9 µM
- TGI (NCI-H522 lung): 42.4 µM
- TGI (NCI/ADR-RES ovarian): 43.2 µM
- TGI (OVCAR-3 ovarian): 42.3 µM
- TGI (OVCAR-4 ovarian): 32.7 µM
- TGI (OVCAR-5 ovarian): 40.3 µM
- TGI (OVCAR-8 ovarian): 38.4 µM
- TGI (PC-3 prostate): 30.9 µM
- TGI (RPMI-8226 leukemia): 33.3 µM
- TGI (RXF 393 renal): 35.7 µM
- TGI (SF-268 CNS): 56.9 µM
- TGI (SF-295 CNS): 39.3 µM
- TGI (SF-539 CNS): 28.5 µM
- TGI (SK-MEL-2 melanoma): 30 µM
- TGI (SK-MEL-28 melanoma): 34.3 µM
- TGI (SK-MEL-5 melanoma): 30.4 µM
- TGI (SK-OV-3 ovarian): 41.6 µM
- TGI (SN12C renal): 40.9 µM
- TGI (SNB-19 CNS): 39.4 µM
- TGI (SNB-75 CNS): 36.5 µM
- TGI (SR leukemia): 30.3 µM
- TGI (SW-620 colon): 42 µM
- TGI (T-47D breast): 43.2 µM
- TGI (TK-10 renal): 31.5 µM
- TGI (U251 CNS): 33.3 µM
- TGI (UACC-257 melanoma): 32.3 µM
- TGI (UACC-62 melanoma): 32.8 µM
- TGI (UO-31 renal): 44.5 µM

SMILES: OCC(Cn1cncn1)(c1ccc(F)cc1F)n1cncn1 (centres undefined)
- TGI (786-0 renal): > 100 µM
- TGI (A498 renal): > 100 µM
- TGI (A549 NSCLC): > 100 µM
- TGI (ACHN renal): > 100 µM
- TGI (BT-549 breast): > 100 µM
- TGI (CAKI-1 renal): > 100 µM
- TGI (CCRF-CEM leukemia): > 100 µM
- TGI (COLO 205 colon): > 100 µM
- TGI (DU-145 prostate): > 100 µM
- TGI (HCC-2998 colon): > 100 µM
- TGI (HCT-116 colon): > 100 µM
- TGI (HCT-15 colon): > 100 µM
- TGI (HL-60(TB) leukemia): > 100 µM
- TGI (HOP-62 NSCLC): > 100 µM
- TGI (HS 578T breast): > 100 µM
- TGI (HT29 colon): > 100 µM
- TGI (IGROV1 ovarian): > 100 µM
- TGI (K-562 leukemia): > 100 µM
- TGI (KM12 colon): > 100 µM
- TGI (LOX IMVI melanoma): > 100 µM
- TGI (M14 melanoma): > 100 µM
- TGI (MALME-3M melanoma): > 100 µM
- TGI (MCF7 breast): > 100 µM
- TGI (MDA-MB-231 breast): > 100 µM
- TGI (MDA-MB-435): > 100 µM
- TGI (MDA-N): > 100 µM
- TGI (MOLT-4 leukemia): > 100 µM
- TGI (NCI-H226 lung): > 100 µM
- TGI (NCI-H23 lung): > 100 µM
- TGI (NCI-H460 lung): > 100 µM
- TGI (NCI-H522 lung): > 100 µM
- TGI (NCI/ADR-RES ovarian): > 100 µM
- TGI (OVCAR-3 ovarian): > 100 µM
- TGI (OVCAR-5 ovarian): > 100 µM
- TGI (OVCAR-8 ovarian): > 100 µM
- TGI (PC-3 prostate): > 100 µM
- TGI (RPMI-8226 leukemia): > 100 µM
- TGI (RXF 393 renal): > 100 µM
- TGI (SF-268 CNS): > 100 µM
- TGI (SF-295 CNS): > 100 µM
- TGI (SF-539 CNS): > 100 µM
- TGI (SK-MEL-2 melanoma): > 100 µM
- TGI (SK-MEL-28 melanoma): > 100 µM
- TGI (SK-MEL-5 melanoma): > 100 µM
- TGI (SK-OV-3 ovarian): > 100 µM
- TGI (SN12C renal): > 100 µM
- TGI (SNB-19 CNS): > 100 µM
- TGI (SNB-75 CNS): > 100 µM
- TGI (SR leukemia): > 100 µM
- TGI (SW-620 colon): > 100 µM
- TGI (T-47D breast): > 100 µM
- TGI (TK-10 renal): > 100 µM
- TGI (U251 CNS): > 100 µM
- TGI (UACC-257 melanoma): > 100 µM
- TGI (UACC-62 melanoma): > 100 µM
- TGI (UO-31 renal): > 100 µM

SMILES: O=C1CSC2=NCC3(NN12)c1ccccc1-c1ccccc13
- TGI (786-0 renal): > 10 µM
- TGI (A549 NSCLC): > 10 µM
- TGI (ACHN renal): > 10 µM
- TGI (BT-549 breast): > 10 µM
- TGI (CAKI-1 renal): > 10 µM
- TGI (CCRF-CEM leukemia): > 10 µM
- TGI (COLO 205 colon): > 10 µM
- TGI (DU-145 prostate): > 10 µM
- TGI (EKVX NSCLC): > 10 µM
- TGI (HCC-2998 colon): > 10 µM
- TGI (HCT-116 colon): > 10 µM
- TGI (HCT-15 colon): > 10 µM
- TGI (HL-60(TB) leukemia): > 10 µM
- TGI (HOP-62 NSCLC): > 10 µM
- TGI (HOP-92 NSCLC): > 10 µM
- TGI (HS 578T breast): > 10 µM
- TGI (HT29 colon): > 10 µM
- TGI (IGROV1 ovarian): > 10 µM
- TGI (K-562 leukemia): > 10 µM
- TGI (KM12 colon): > 10 µM
- TGI (LOX IMVI melanoma): > 10 µM
- TGI (M14 melanoma): > 10 µM
- TGI (MALME-3M melanoma): > 10 µM
- TGI (MCF7 breast): > 10 µM
- TGI (MDA-MB-231 breast): > 10 µM
- TGI (MDA-MB-435): > 10 µM
- TGI (MDA-N): > 10 µM
- TGI (MOLT-4 leukemia): > 10 µM
- TGI (NCI-H226 lung): > 10 µM
- TGI (NCI-H23 lung): > 10 µM
- TGI (NCI-H460 lung): > 10 µM
- TGI (NCI-H522 lung): > 10 µM
- TGI (NCI/ADR-RES ovarian): > 10 µM
- TGI (OVCAR-4 ovarian): > 10 µM
- TGI (OVCAR-8 ovarian): > 10 µM
- TGI (PC-3 prostate): > 10 µM
- TGI (RPMI-8226 leukemia): > 10 µM
- TGI (RXF 393 renal): > 10 µM
- TGI (SF-268 CNS): > 10 µM
- TGI (SF-295 CNS): > 10 µM
- TGI (SF-539 CNS): > 10 µM
- TGI (SK-MEL-28 melanoma): > 10 µM
- TGI (SK-MEL-5 melanoma): > 10 µM
- TGI (SK-OV-3 ovarian): > 10 µM
- TGI (SN12C renal): > 10 µM
- TGI (SNB-19 CNS): > 10 µM
- TGI (SNB-75 CNS): > 10 µM
- TGI (SR leukemia): > 10 µM
- TGI (SW-620 colon): > 10 µM
- TGI (T-47D breast): > 10 µM
- TGI (TK-10 renal): > 10 µM
- TGI (UACC-257 melanoma): > 10 µM
- TGI (UACC-62 melanoma): > 10 µM
- TGI (UO-31 renal): > 10 µM
